The target in one assay is T1, human D2L (Homo sapiens, UniProt P14416).
T1 construct: expressed in transfected cells; host or cells: HEK293
Briefly: Radioligand displacement assay at dopamine D2R ([3H]-raclopride, HEK293 cells). The format is binding. The note with it: HEK293 cells stably expressing human D2R, read-out: Ki ± SD (n), D2R. On the technique in general: In a radioligand displacement assay an active substance lowers the binding of a labelled ligand.

In assay [1] the target is T2, human serotonin 5-HT2A receptor (Homo sapiens, UniProt P28223).
T2 construct: host or cells: CHO-K1
Briefly: Radioligand displacement assay at 5-HT2A ([3H]-ketanserin, CHO-K1 cells). Type of assay: binding. The note with it: CHO-K1 cells expressing human 5-HT2A, read-out: Ki ± SD (n), 5-HT2A.

T2 sequence (P28223 whole entry): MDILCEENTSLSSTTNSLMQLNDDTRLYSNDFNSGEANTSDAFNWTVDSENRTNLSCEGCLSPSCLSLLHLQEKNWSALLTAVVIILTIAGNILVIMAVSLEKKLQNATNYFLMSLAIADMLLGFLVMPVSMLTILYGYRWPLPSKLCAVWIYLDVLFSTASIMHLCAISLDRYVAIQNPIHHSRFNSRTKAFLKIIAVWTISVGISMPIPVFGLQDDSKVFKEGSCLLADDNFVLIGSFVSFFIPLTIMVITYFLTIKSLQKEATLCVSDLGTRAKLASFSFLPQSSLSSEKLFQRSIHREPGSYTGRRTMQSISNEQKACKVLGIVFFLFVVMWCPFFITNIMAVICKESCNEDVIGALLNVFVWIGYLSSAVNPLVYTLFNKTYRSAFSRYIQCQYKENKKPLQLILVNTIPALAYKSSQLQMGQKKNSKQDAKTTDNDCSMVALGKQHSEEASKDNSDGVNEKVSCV
T1 sequence (P14416 whole entry): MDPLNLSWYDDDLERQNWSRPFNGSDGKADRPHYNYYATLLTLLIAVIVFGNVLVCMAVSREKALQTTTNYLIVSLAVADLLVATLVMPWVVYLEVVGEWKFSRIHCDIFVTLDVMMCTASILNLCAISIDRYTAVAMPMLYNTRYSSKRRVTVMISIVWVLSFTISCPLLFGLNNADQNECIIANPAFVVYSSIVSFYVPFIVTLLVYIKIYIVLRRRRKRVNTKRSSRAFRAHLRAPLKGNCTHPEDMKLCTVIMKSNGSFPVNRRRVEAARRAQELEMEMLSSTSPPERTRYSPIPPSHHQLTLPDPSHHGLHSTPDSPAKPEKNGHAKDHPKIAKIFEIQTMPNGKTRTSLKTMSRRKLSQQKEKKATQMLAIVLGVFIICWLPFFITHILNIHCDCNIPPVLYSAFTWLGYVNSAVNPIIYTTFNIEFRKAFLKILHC

Regarding `CN1CCC(N(Cc2ccc(F)cc2)C(=O)NCc2ccc(OCCCN3CCCCC3)cc2)CC1` [ST-2300, 1-(4-Fluorobenzyl)-1-(1-methylpiperidin-4-yl)-3-{4-[3-(piperidin-1-yl)propoxy]benzyl}urea], the Ki (as a rule, the equilibrium dissociation constant of an inhibitor or competing ligand from its target) is above 10000 nM at human D2L and 1300 ± 331 nM in assay [1].

The values are drawn from article PMC9138994 (Biomolecules, 2022).
